According to patent US20120142766A1, “SUBSTITUTED 1,3-DIOXANES AND THEIR USES” (EVOLVA SA, priority 2007, published 2012):

Experiments:
[1] = test system: Human platelet rich plasma; assay: TP receptor platelet aggregation, human (U-46619-induced); type: cell-based; conditions: 3 μM U-46619-induced
Procedure: (§1) Thrombosis Research 33:277-288.
TP Receptor Platelet Aggregation—Human:
Human (60±10 kg) platelet rich plasma
Assay. Inhibition of 3 μM U-46619-induced platelet aggregation Incubation Time, Temp: 5 minutes at 37° C. Incubation Buffer Trisodium Citrate (0.13 M)-treated fresh platelet rich plasma
(§2) Time of Assessment: 5 minutes
(§3) Quantification Method Optical Density Change

[2] = molecular target: T1, Thromboxane receptor (TP) (Homo sapiens, UniProt P21731); assay: TP receptor radioligand binding ([3H] SQ-29548); conditions: Human recombinant HEK-293 cells
T1 construct: expressed in transfected cells; host or cells: HEK-293
T1 sequence (P21731 1-343): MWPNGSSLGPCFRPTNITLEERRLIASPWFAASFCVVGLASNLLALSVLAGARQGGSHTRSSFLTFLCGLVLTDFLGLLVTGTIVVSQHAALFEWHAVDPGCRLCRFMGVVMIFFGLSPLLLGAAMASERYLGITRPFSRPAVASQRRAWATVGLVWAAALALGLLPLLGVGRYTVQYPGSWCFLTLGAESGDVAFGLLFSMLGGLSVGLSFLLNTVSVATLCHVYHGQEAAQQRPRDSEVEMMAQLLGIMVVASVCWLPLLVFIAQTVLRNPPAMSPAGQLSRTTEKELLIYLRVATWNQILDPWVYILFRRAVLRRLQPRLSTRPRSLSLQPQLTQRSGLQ
Procedure: The compounds were tested on radioligand binding assays for thromboxane receptor binding essentially as described by Hedberg et al. (1988) J. Pharmacol. Exp. Ther. 245:786-792 and Saussy et al. (1986) J. Biol. Chem. 261: 3025-3029 according to the following:
TP Receptor Radioligand Binding Studies:
Human recombinant HEK-293 cells,
Incubation Time, Temp: 30 minutes at 25° C.
Incubation Buffer: 50 mM Tris-HCl, pH 7.4, 154 mM NaCl
Non-Specific Ligand: 1 μM SQ-29548
The data were transformed to semi-log and then analysed using non-linear regression to a four-parameter dose-response curve Y=Bottom+(Top−Bottom)/(1+10̂((LogEC50−X)*HillSlope)) using the log(agonist) vs. response—Variable slope function of GraphPad Prism software (http://graphpad.com/help/prism5/prism5help.html?usitignonlinear_regression_step_by_s.htm).

Thromboxane synthase = molecular target: T2, Thromboxane synthase (Homo sapiens, UniProt P24557); assay: Human platelet thromboxane synthase assay; type: biochemical
T2 construct: Human Platelet Thromboxane Synthase Assay; from tissue; host or cells: human platelets
T2 sequence (P24557 1-533): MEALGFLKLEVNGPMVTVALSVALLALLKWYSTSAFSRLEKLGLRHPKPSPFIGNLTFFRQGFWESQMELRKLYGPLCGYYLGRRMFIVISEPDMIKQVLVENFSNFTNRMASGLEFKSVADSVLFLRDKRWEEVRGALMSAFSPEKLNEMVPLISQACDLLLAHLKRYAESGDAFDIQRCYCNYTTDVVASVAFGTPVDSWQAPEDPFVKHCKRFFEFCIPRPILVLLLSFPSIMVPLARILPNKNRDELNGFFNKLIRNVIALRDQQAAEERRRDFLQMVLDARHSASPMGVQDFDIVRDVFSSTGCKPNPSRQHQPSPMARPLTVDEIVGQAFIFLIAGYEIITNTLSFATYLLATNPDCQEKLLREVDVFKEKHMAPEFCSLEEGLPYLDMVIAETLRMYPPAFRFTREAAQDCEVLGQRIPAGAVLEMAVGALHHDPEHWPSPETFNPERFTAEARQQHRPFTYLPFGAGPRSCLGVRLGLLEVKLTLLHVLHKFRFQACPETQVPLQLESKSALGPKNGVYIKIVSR
Procedure: The compounds were tested for thromboxane synthase inhibition essentially as described by Borsch-Haubold A G, Pasquet S, Watson S P. (1998) Direct inhibition of cyclooxygenase-1 and -2 by the kinase inhibitors SB 203580 and PD 98059. […] 1. Imidazole derivatives. J Med. Chem. (10):1139-48 according to the following:
Pre-incubation time, temp: 15 minutes at 25° C. Incubation time, temp: 3 minutes at 25° C.
Incubation Buffer: 10 mM Tris-HCl, pH 7.4
Quantification Method: EIA quantification of TxB2

[3] = molecular target: T3, Human Recombinant (E. coli) PPARgamma (Homo sapiens, UniProt P37231); assay: PPAR gamma binding assay ([3H]-rosiglitazone); conditions: for Ki / IC50: [3H]-rosiglitazone 10 nM; for Ki: Cheng Prusoff, read-out: PPARγ binding Ki; for IC50: read-out: PPARγ binding IC50
T3 construct: host or cells: E. coli
T3 sequence (P37231 1-505): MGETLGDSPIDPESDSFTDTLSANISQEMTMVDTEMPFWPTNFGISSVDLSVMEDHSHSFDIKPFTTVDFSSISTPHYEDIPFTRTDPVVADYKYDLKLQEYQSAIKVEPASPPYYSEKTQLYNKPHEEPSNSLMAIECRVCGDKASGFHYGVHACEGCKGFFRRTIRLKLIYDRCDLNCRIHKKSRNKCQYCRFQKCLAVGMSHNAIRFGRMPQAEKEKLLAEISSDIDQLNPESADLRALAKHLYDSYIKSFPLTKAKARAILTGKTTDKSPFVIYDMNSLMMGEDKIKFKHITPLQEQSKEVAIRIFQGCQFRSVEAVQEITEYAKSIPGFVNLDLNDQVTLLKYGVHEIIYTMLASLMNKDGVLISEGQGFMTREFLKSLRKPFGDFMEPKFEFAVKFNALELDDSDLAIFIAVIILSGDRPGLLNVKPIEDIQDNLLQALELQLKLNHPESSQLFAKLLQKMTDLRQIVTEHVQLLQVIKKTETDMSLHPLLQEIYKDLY
Procedure: Incubation: 120 min. at 4° C.
The results are expressed as a percent of control specific binding ((measured specific binding/control specific binding)×100) obtained in the presence of the test compounds. The IC50 values (concentration causing a half-maximal inhibition of control specific binding) and Hill coefficients (nil) were determined by non-linear regression analysis of the competition curves generated with mean replicate values using Hill equation curve fitting (Y=D+[(A−D)/(1+(C/C50)nH)], where Y=specific binding, D=minimum specific binding, A=maximum specific binding, C=compound concentration, C50=IC50, and nH=slope factor). This analysis was performed using a software developed at Cerep (Hill software) and validated by comparison with data generated by the commercial software SigmaPlot® 4.0 for Windows® (© 1997 by SPSS Inc.). The inhibition constants (Ki) were calculated using the Cheng Prusoff equation (Ki=IC50/(1+(L/KD)), where L=concentration of radioligand in the assay, and KD=affinity of the radioligand for the receptor).

[4] = test system: New Zealand Rabbit platelet rich plasma; assay: TP receptor platelet aggregation, rabbit (U-46619-induced); type: cell-based
Procedure: as §1
TP Receptor Platelet Aggregation—Rabbit:
New Zealand Rabbit (2.75±0.25 kg) platelet rich plasma
Assay: Inhibition of 1.5 μM U-46619-induced platelet aggregation Incubation Time, Temp: 5 minutes at 37° C. Incubation Buffer Trisodium Citrate (0.13 M)-treated platelet rich plasma
as §2, §3

[5] = test system: arterial thrombosis in a mouse model; assay: Arterial thrombosis mouse model (FeCl3 on femoral artery); type: in vivo; conditions: dose not given
Procedure: The solutions are diluted 3.3-fold in saline and 100 μl/25 g is injected. Thus, the above-mentioned doses of 100 and 300 mg/kg of compound correspond to final doses of 30 and 100 mg/kg.
During the experiments, a soluble salt of the drug is provided (potassium salt of compound C), diluted in saline. Of this formulation, 100 μl/25 g is injected i.v. in the tail vein (dose of 100 mg/kg).
Solutions are injected (100 μl/25 g body weight) i.v. in the tail vein over 2 min to obtain doses of each compound of 30 mg/kg and 100 mg/kg. Aspirin is given the same way at a dose of 200 mg/kg. Clopidogrel is administered by oral gavage at a dose of 20 mg/kg at 6-7 hours prior to the experiment. The animals assigned to each group are matched for body weight. Mice are typically 8-10 weeks old males and are in a 100% Swiss genetic background.
The flow in each image is expressed as a percentage of that at the contralateral side, and data are averaged for all 120 images to determine total flow. The same analysis is performed for 10 min intervals (which gives essentially the same information as the area under the curve). […] Flow before treatment is recorded as 100%, and that in occluded arteries as 0%. At the end of the experiment, blood is collected on 0.01M citrate by heart puncture for determination of blood cell counts. Plasma is prepared by centrifugation and stored at −20° C. for determination of drug levels.
Statistical analysis for differences between two groups is performed by non-parametric Student t-test. Occlusion times >30 min were considered equal to 30 min for statistical analysis. Significance is set at p<0.05.

| IC50 [1] | inhibition at 10 µM [2] | IC50 (Thromboxane synthase) | inhibition at 10 µM (Thromboxane synthase; 10 μM) | Ki [3] | IC50 [3] | IC50 ([2]; 5 nM [3H] SQ-29548) | Ki ([2]; 5 nM [3H] SQ-29548) | inhibition at 5 µM (Thromboxane synthase; 5 μM) | Inhibition of thromboxane synthase (in words) (Thromboxane synthase; Table 2) | PPARgamma binding compared with Compound A (in words) ([3]; summary of Table 3) | Thromboxane synthase Human platelet Inhibition (%) (Thromboxane synthase; 10 μM) | PPARγ binding (in words) ([3]; at 30 μM) | SMILES | inhibition at 30 µM ([4]; Oryctolagus cuniculus, Platelet, 30 μM, 1.5 μM U-46619-induced) | Inhibition of platelet aggregation (in words) ([4]; Table 2) | Occlusion time [5] | Total blood flow [5] | inhibition at 30 µM ([1]; 30 μM) | inhibition at 100 µM ([4]; Oryctolagus cuniculus, Platelet, 0.1 mM, 1.5 μM U-46619-induced) |
| --- | --- | --- | --- | --- | --- | --- | --- | --- | --- | --- | --- | --- | --- | --- | --- | --- | --- | --- | --- |
| 1500 nM | 105% | 31900 nM | 16% | 4800 nM | 13000 nM |  |  |  |  |  |  |  | O=C(O)CC/C=C\CC1COC(c2ccccc2Cl)OC1c1ccccc1O (racemic) [Compound A, (Z)-6-(-2-(2-chlorophenyl)-4-(2-hydroxyphenyl)-1,3-dioxan-5-yl)hex-4-enoic acid] |  |  |  |  |  |  |
|  | 101% | 354 nM |  | 800 nM | 2300 nM | 1.25 nM | 0.82 nM | 71% | inhibitors of thromboxane synthase | at least as well as Compound A |  |  | COc1ccc(Oc2ccccc2C2OC[C@@H](C/C=C\CCC(=O)O)[C@@H](c3ccccc3O)O2)cc1 (stereo partly drawn) [Compound 1] | 96% | potent inhibitors of platelet aggregation | prolongs the occlusion time | improves total blood flow |  |  |
|  |  |  | 25% |  |  |  |  |  |  |  | 28% | no binding | O=C(O)CC/C=C\C[C@H]1CO[C@@H](c2ccccc2Cl)O[C@H]1c1ccccc1O [Compound B, (Z)-6-((2R,4R,5S)-2-(2-chlorophenyl)-4-(2-hydroxyphenyl)-1,3-dioxan-5-yl)hex-4-enoic acid] |  |  |  |  | 13% | 15% |
